Molecules are shown by their SMILES. pEC50: −log10 of the molar value. Read-outs that look alike come from different tables or passages of the source.

Test [1] deals with human iPS cell Toe strain. Description: Effect to promote differentiation from human iPS cells into insulin-producing cells (insulin-positive cell rate, imaging). Format: cell-based. On the set-up: key to Activity: +: the sum of activity values at the two concentrations was obviously higher than the control untreated with compounds while being lower than the positive control; ++: the sum was equivalent to the positive control; +++: the sum was higher than the positive control. Conditions: for pEC50: efficacy of 10 μM of the compound of Example 1 taken as 100%, 0.01 to 10 μM, read-out: E050; for Activity: sum of activity values at 2 μM and 10 μM compared with positive control (compound of Example 1), added at stages 3 to 5. The text has this: The evaluation system of the effect (efficacy) to promote differentiation from human iPS cells into insulin-producing cells was constructed with reference to known information (Non Patent Document 6). Further, the medium used in each differentiation stage was also produced with reference to known information (differentiation media A to E (Media A to E) described in Non Patent Document 6 were used respectively for stages 1 to 5; however, a medium free from GLP-1 receptor agonist and nicotinamide was used as differentiation medium E).
In order to evaluate the efficacy of each compound, the compound of Example 1 was used as a positive control, and dimethylsulfoxide (DMSO) (SIGMA, D2650) with a final concentration of 0.1% was used as a control untreated with compounds. […] In the following evaluation, the compound solutions were added to the medium to 0.1% that is the final concentration of DMSO. First, induction from human iPS cell Toe strain (National Institutes of Biomedical Innovation, Health and Nutrition) into cells on day 7 of culture (2 days after replacement with differentiation medium C (cells in the differentiation process from FOXA2-positive primitive gut tube cells into PDX1-positive pancreatic progenitor cells)) was performed according to the method of Non Patent Document 6 for “inducing differentiation from human iPS cells into pancreatic β cells”, and the cells were collected and thereafter stored in liquid nitrogen using Bambanker (NIPPON Genetics Co, Ltd.) at 1×10^7 cells/mL/tube, to produce a cell stock for evaluation. The cell stock was dissolved at the start of the evaluation of efficacy, suspended in differentiation medium C for stage 3 (DMEM high glucose (Life technologies, 11965092), 0.25 μM SANT-1, 0.1 μM LDN193189 (Stemgent, 04-0074), 10 μM SB431542, 2 μM Retinoic acid (Stemgent, 04-0021), 1% B27 serum free supplement (Life technologies, 17504044) and thereafter seeded in a 96-well plate (Corning, #3340) coated with Synthemax II (Corning, #5656) at 1×10^5 cells/well. After culturing for 2 days, the medium was removed, and new differentiation medium C for stage 3 with the compound or only DMSO added was added thereto at 100 μL/well. After culturing for 2 days, the medium was removed, and new differentiation medium D for stage 4 (DMEM high glucose, 0.1 μM LDN193189, 5 μM TGF-β type I receptor kinase inhibitor II (Calbiochem 616452), 0.3 μM (−)-indolactam V (Enzo life science ALX-420-011-C300), 1% B27 serum free supplement) with the compound or only DMSO added was added thereto at 100 μL/well. After culturing for 2 to 3 days, the medium was removed, and new differentiation medium E for stage 5 (GLP-1 receptor agonist and nicotinamide-free; Knockout […] (Life technologies, 12660012), 1% B27 serum free supplement) with the compound or only DMSO added was added thereto at 200 μL/well. After culturing for 2 days, the medium was removed, and a 4% paraformaldehyde phosphorus acid buffer (Wako, 163-20145) was added thereto at 150 μL/well and left standing for 30 to 60 minutes at room temperature to fix the cells. A phosphorus acid buffer (PBS) (Takara, T9181) containing 1% Triton X-100 (Sigma, T8787) was left standing for 15 minutes at room temperature, then washed with PBS-T (Takara, T9183), and was blocked for 1 hour using 20% Blocking One (Nacalai tesque, Tokyo, Japan) diluted with PBS-T at room temperature. After the removal of Blocking One, guinea pig anti-insulin antibody (Abcam, ab7842) diluted 200-fold with 20% Blocking One was added thereto at 50 μL/well, followed by standing at 4° C. overnight. After washing with PBS-T 3 times, […]-labeled anti-guinea pig antibody (Life Technologies, A11075) diluted 1000-fold with 20% Blocking One and 6-diamidino-2-phenylindole (DAPI) (Roche Diagnostics, Basel, Switzerland) were added thereto, followed by standing at room temperature for 2 hours. After washing with PBS-T 3 times, the fluorescence images of the cells were analyzed. […]

Another test addresses T1, UCHL1 (Homo sapiens, UniProt P09936).
T1 sequence (P09936 1-223): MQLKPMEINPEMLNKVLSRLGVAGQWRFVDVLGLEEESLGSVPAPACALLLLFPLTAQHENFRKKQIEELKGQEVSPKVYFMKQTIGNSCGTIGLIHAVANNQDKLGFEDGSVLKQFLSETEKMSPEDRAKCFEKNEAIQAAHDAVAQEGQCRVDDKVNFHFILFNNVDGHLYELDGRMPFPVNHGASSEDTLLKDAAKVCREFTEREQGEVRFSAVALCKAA
Description: Evaluation of UCHL1 activation (ubiquitin-AMC hydrolysis). As to conditions: test compound 10 μM; control (DMSO) = 100; fluorescence increment 10 minutes to 2 hours; n=3.

Description for UCHL1: Using dimethylsulfoxide (DMSO) (SIGMA, D2650) as a control untreated with compounds (which will be hereinafter referred to as control), each test compound was dissolved in DMSO in use. DMSO and the test compound solutions were each added to the enzymatic reaction solution to a final concentration of 2%. […] The amount of fluorescence (excitation wavelength: 350 nm and fluorescence wavelength: 440 nm) of AMC generated due to hydrolysis of the fluorescence-labeled substrate was measured 10 minutes and 2 hours after the start of the enzymatic reaction, to calculate the increment in amount of fluorescence by subtraction between the two.
The amount of fluorescence of AMC was measured using Envision (PerkinElmer). The increment in amount of fluorescence of the control was taken as 100%, and the increment in amount of fluorescence of each test compound was expressed as a percentage (%) based on this, to obtain an enzymatic activity value. Enzymatic activity value (%)={(Amount of fluorescence increment of each test compound)/(Amount of fluorescence increment of control)}×100

On to `O=C1CCC(C(=O)Nc2ncc(-c3ccc(OC(F)(F)F)cc3)s2)n2cccc21` (single isomer, unassigned) [Example 10a], for which, in test [1], the pEC50 is 5.92 and the Activity result is on record as “+++”.

As to `O=C1CCC(C(=O)Nc2ncc(-c3ccc(OC(F)(F)F)cc3)s2)n2cccc21` (single isomer, unassigned) [Example 10b], in test [1], the pEC50 was 6.66 and the Activity result is given as “+++”.

As for `Cc1nc(NC(=O)C2CCC(=O)c3cccn32)sc1-c1ccc(OC(C)(C)C)cc1` (single isomer, unassigned) [Example 101a], the Activity entry in test [1] is reported as “+”.

`Cc1nc(NC(=O)C2CCC(=O)c3cccn32)sc1-c1ccc(OC(C)(C)C)cc1` (single isomer, unassigned) [Example 101b]: the “Enzyme activity (c/o)” value at UCHL1 came out at 318 c/o. Moreover, the pEC50 in test [1] (Homo sapiens) is 7.05. In addition, in test [1], the Activity result is “+++”.

In the case of `O=C1CCC(C(=O)Nc2ncc(-c3ccccc3)s2)n2cccc21` (centres unmarked) [Example 1, 8-Oxo-N-(5-phenylthiazol-2-yl)-6,7-dihydro-5H-indolizine-5-carboxamide], the pEC50 in test [1] (Homo sapiens) is 5.24.

As for `CC(C)(C)Oc1ccc(-c2cnc(NC(=O)C3CCC(=O)c4cccn43)s2)cc1` (centres unmarked) [Example 11, N-[5-(4-Tert-butoxyphenyl)thiazol-2-yl]-8-oxo-6,7-dihydro-5H-indolizine-5-carboxamide], the pEC50 in test [1] (Homo sapiens) was 6.31.

Take `Cc1ccc(-c2cnc(NC(=O)C3CCC(=O)c4cccn43)s2)cc1` (centres unmarked) [Example 18]: in test [1], the Activity entry is recorded as “++”.

With `O=C1CCC(C(=O)Nc2ncc(-c3ccc(C(F)(F)F)cc3)s2)n2cccc21` (centres unmarked) [Example 21, 8-Oxo-N-[5-[4-(trifluoromethyl)phenyl]thiazol-2-yl]-6,7-dihydro-5H-indolizine-5-carboxamide], the pEC50 in test [1] (Homo sapiens) was 6.35.

For the molecule `O=C1CCC(C(=O)Nc2ncc(-c3ccc4ccccc4c3)s2)n2cccc21` (centres unmarked) [Example 24, N-[5-(2-Naphthyl)thiazol-2-yl]-8-oxo-6,7-dihydro-5H-indolizine-5-carboxamide], the Activity entry in test [1] is “+”.

Turning to `O=C1CCC(C(=O)Nc2ncc(-c3ccc(OC(F)(F)F)c(Cl)c3)s2)n2cccc21` (centres unmarked) [Example 30, N-[5-[3-Chloro-4-(trifluoromethoxy)phenyl]thiazol-2-yl]-8-oxo-6,7-dihydro-5H-indolizine-5-carboxamide], the pEC50 in test [1] (Homo sapiens) is 6.00.

On to `Cc1nc(NC(=O)C2CCC(=O)c3cccn32)sc1-c1ccc(OC(C)(C)C)cc1` (centres unmarked) [Example 35, N-[5-(4-tert-Butoxyphenyl)-4-methylthiazol-2-yl]-8-oxo-6,7-dihydro-5H-indolizine-5-carboxamide], for which the pEC50 in test [1] (Homo sapiens) is 6.60.

Regarding `Cc1nc(NC(=O)C2CCC(=O)c3cccn32)sc1-c1ccc(OC(F)(F)F)cc1` (centres unmarked) [Example 36, N-[4-Methyl-5-[4-(trifluoromethoxy)phenyl]thiazol-2-yl]-8-oxo-6,7-dihydro-5H-indolizine-5-carboxamide], the pEC50 in test [1] (Homo sapiens) is 6.51.

On to `O=C1CCC(C(=O)Nc2ncc(-c3ccc4c(c3)OC(F)(F)O4)s2)n2cccc21` (centres unmarked) [Example 40, N-[5-(2,2-Difluoro-1,3-benzodioxol-5-yl)thiazol-2-yl]-8-oxo-6,7-dihydro-5H-indolizine-5-carboxamide], for which, in test [1] (Homo sapiens), the pEC50 is 6.09.

For `O=C1CCC(C(=O)Nc2ncc(-c3ccc(OCc4ccccc4)c(F)c3)s2)n2cccc21` (centres unmarked) [Example 43, N-[5-(4-Benzyloxy-3-fluorophenyl)thiazol-2-yl]-8-oxo-6,7-dihydro-5H-indolizine-5-carboxamide], in test [1] (Homo sapiens), the pEC50 is 6.72.

In the case of `O=C1CCC(C(=O)Nc2ncc(-c3ccc(OCC(F)(F)F)cc3)s2)n2cccc21` (centres unmarked) [Example 45, 8-Oxo-N-[5-[4-(2,2,2-trifluoroethoxy)phenyl]thiazol-2-yl]-6,7-dihydro-5H-indolizine-5-carboxamide], the pEC50 in test [1] (Homo sapiens) was 6.89.

Turning to `O=C1CCC(C(=O)Nc2ncc(-c3ccc(Oc4ccccc4)cc3)s2)n2cccc21` (centres unmarked) [Example 46, 8-Oxo-N-[5-(4-phenoxyphenyl)thiazol-2-yl]-6,7-dihydro-5H-indolizine-5-carboxamide], in test [1] (Homo sapiens), the pEC50 was 6.27.

With `O=C1CC(C(=O)Nc2ncc(-c3ccc(OC(F)(F)F)cc3)s2)n2cccc21` (centres unmarked) [Example 58], the pEC50 in test [1] (Homo sapiens) was 5.80.

With `O=C1CCC(C(=O)Nc2nc3ccc(-c4ccc(OC(F)(F)F)cc4)cc3s2)n2cccc21` (centres unmarked) [Example 59, 8-Oxo-N-[6-[4-(trifluoromethoxy)phenyl]-1,3-benzothiazol-2-yl]-6,7-dihydro-5H-indolizine-5-carboxamide], the pEC50 in test [1] (Homo sapiens) was 6.27.

`CC1(C(=O)Nc2ncc(-c3ccc(OC(F)(F)F)cc3)s2)CCC(=O)c2cccn21` (centres unmarked) [Example 65]: the pEC50 in test [1] (Homo sapiens) is 5.74.

With `Cc1nc(NC(=O)C2CCC(=O)c3cccn32)sc1-c1ccc(OCC(F)(F)F)cc1` (centres unmarked) [Example 88, N-[4-Methyl-5-[4-(2,2,2-trifluoroethoxy)phenyl]thiazol-2-yl]-8-oxo-6,7-dihydro-5H-indolizine-5-carboxamide], the “Enzyme activity (c/o)” value on UCHL1 was 422 c/o. Moreover, in test [1] (Homo sapiens), the pEC50 was 6.62.

On to `O=C1CCC(C(=O)Nc2nc3ccc(-c4ccc(Cl)cc4)cc3s2)n2cccc21` (centres unmarked) [Example 93, N-[6-(4-Chlorophenyl)-1,3-benzothiazol-2-yl]-8-oxo-6,7-dihydro-5H-indolizine-5-carboxamide], for which, in test [1] (Homo sapiens), the pEC50 was 6.54.

Source of the values: patent US11530211B2, “Dihydroindolizinone derivative” (DAIICHI SANKYO COMPANY, LIMITED, priority 2018, dated 2022).
